Target: T1, thromboxane synthetase (Rattus norvegicus, UniProt P49430)
T1 sequence (P49430 1-533): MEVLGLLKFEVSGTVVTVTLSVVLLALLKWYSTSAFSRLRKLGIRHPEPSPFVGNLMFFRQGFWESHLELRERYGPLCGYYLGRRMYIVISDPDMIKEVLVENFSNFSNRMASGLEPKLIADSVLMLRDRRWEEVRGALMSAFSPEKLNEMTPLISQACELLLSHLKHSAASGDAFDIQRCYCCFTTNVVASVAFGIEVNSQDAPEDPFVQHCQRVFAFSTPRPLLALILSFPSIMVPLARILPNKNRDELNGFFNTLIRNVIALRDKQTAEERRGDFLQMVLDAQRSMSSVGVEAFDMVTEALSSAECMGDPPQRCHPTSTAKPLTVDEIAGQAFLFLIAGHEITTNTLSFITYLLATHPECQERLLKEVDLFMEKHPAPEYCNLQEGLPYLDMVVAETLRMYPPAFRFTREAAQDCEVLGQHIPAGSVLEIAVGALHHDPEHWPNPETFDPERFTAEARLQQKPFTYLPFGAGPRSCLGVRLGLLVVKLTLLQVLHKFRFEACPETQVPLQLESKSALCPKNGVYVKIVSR
Test: Inhibition of thromboxane formation in washed SHR platelets (TXB2 by direct radioimmunoassay)
Details: read-out: % Inhibition (of TXB2 formation), drug at 10^-4 M, 10 minutes at 37° C.
Description: From Okamoto-Aoki spontaneously hypertensive rats (SHR) (Taconic Farms, Germantown, NY) between 19 and 24 weeks in age, under urethane anesthesia, 10 μl of arterial blood was collected in one ml of 3.2% sodium citrate in a polystyrene tube. The blood was diluted with 3 ml cold saline and centrifuged at room temperature for 15 minutes at 460×g. The platelet rich plasma (PRP) was separated. The platelets were isolated by centrifuging the PRP for 10 minutes at 1060×g and were washed in 4 ml cold oxygenated Krebs phosphate buffer, pH 7.4. The chilled platelets recovered from centrifuging at 800×g for 10 minutes were resuspended in oxygenated Krebs phosphate buffer and diluted to contain 4.5-6.0×10^4 platelets/μl.
The inhibition of thromboxane (TX) formation was studied by determining the concentration of thromboxane B2 (TXB2), the stable hydrolysis product of TXA2. Assay samples, prepared on ice, contained 200 μl platelet suspension, 50 μl saline, and 50 μl vehicle or drug under study at a concentration of 10^-4 M (with OKY-1581, UK-37248-01, 1-benzylimidazole, and/or indomethacin used as standards). […] The TXB2 content for each sample was determined by a direct radioimmunoassay (RIA) utilizing a TXB2 specific RIA kit purchased from New England Nuclear, Boston, MA and results expressed as pg TXB2 formed minute^-1 sample^- 1, from which the percent inhibition of TXB2 formation was calculated.

Compound	inhibition at 100 µM
O=c1c2cc(Cl)ccc2nnn1CCCCn1ccnc1	79%
CC(Cn1ccnc1)Cn1nnc2ccc(Cl)cc2c1=O (centres unmarked) [6-Chloro-3-[3-(1H-imidazol-1-yl)-2-methylpropyl]-1,2,3-benzotriazin-4(3H)-one]	97%

Source: patent US4680293A, “3-imidazolylalkyl-, triazolylalkyl-, pyridinylalkyl-1,2,3-benzotriazin-4(3H)-ones and derivatives thereof” (American Cyanamid Company, priority 1986, dated 1987)
